Laboratory results reported in patent publication US20100184704A1, “USE OF THE PEPTIDE GLY-ARG-GLY-ASP-ASN-PRO AS A THERAPEUTIC AGENT” (priority 2007, published 2010).
Where a SMILES comes first, the peptide text is derived from it.

Test system: drug-resistant Mycobacterium tuberculosis
Details: 5 micrograms per ml

For `N=C(N)NCCC[C@H](NC(=O)CN)C(=O)NCC(=O)N[C@@H](CC(=O)O)C(=O)N[C@@H](CC(N)=O)C(=O)N1CCC[C@H]1C(=O)O` [Gly-Arg-Gly-Asp-Asn-Pro, Gly-Arg-Gly-Asp-Asn-Pro-OH] (H-GRGDNP-OH), the “% inhibition” value was 0.0%.
